Measured values published in US20260223848A1, “METHOD OF INCREASING SUGAR PRODUCTION FROM SUGARCANE” (CORTEVA AGRISCIENCE LLC, priority 2021, published 2026).

Key:
Type in all cases: in vivo
ratoon sugarcane = assay: Ratoon sugarcane control field studies; conditions: for % Control: post application, 4 to 6 leaves, 50 to 60 cm
Experimental: In order to study the activity of Haloxyfop-P-methyl as possible herbicide for ratoon sugarcane control, field studies were carried out. Haloxyfop-P-methyl was tested at 124; 248; 373; 620 and 1240 g ai/ha plus mineral oil at 0.5% v/v and compared to key standard, as glyphosate (Glizmax Prime®) at 2160 g ae/ha. Trials were sprayed postemergence with 4 to 6 leaves or 50 to 60 cm of ratoon sugarcane regrowth and assessed percentage of control at 14; 30; 45 and 60 days after application (DAA).

sugarcane [1] = assay: Sugarcane ripening field studies, halauxifen-methyl plus haloxyfop-P-methyl; conditions: six field studies, 30 days after application, rate g ai/ha: halauxifen-methyl 2.16, mixture 27 + 2.16, haloxyfop-P-methyl 27, sulfometuron 15, trinexapac 250; for Gain Fiber: untreated 0.5; for Gain POL: untreated 2.7; for Gain Purity: untreated 6.8; for Gain TRS: untreated 23.4
sugarcane [2] = assay: Sugarcane ripening field studies, florpyrauxifen-benzyl and haloxyfop-P-methyl; conditions: for ripening performance: versus the standards trinexapac and sulfometuron
[3] = 14.5 g ai/ha, single application 50 L/ha 60 days before harvest, 30 DAA
[4] = 14.5 g ai/ha, single application 50 L/ha 60 days before harvest, 45 DAA
[5] = 50 g ai/ha, single application 50 L/ha 60 days before harvest, 30 DAA
[6] = 50 g ai/ha, single application 50 L/ha 60 days before harvest, 45 DAA
[7] = 100 g ai/ha, single application 50 L/ha 60 days before harvest, 30 DAA
[8] = 100 g ai/ha, single application 50 L/ha 60 days before harvest, 45 DAA
[9] = 30 days after application, rate g ai/ha: haloxyfop-P-methyl 27, florpyrauxifen-benzyl 2.2, mixture 27 + 2.2, sulfometuron 15, trinexapac 250, untreated 0.6
[10] = 30 days after application, rate g ai/ha: haloxyfop-P-methyl 27, florpyrauxifen-benzyl 2.2, mixture 27 + 2.2, sulfometuron 15, trinexapac 250, untreated 2.8
[11] = 30 days after application, rate g ai/ha: haloxyfop-P-methyl 27, florpyrauxifen-benzyl 2.2, mixture 27 + 2.2, sulfometuron 15, trinexapac 250, untreated 7.2
[12] = 30 days after application, rate g ai/ha: haloxyfop-P-methyl 27, florpyrauxifen-benzyl 2.2, mixture 27 + 2.2, sulfometuron 15, trinexapac 250, untreated 25.2
[13] = 45 days after application, rate g ai/ha: haloxyfop-P-methyl 27, florpyrauxifen-benzyl 2.2, mixture 27 + 2.2, sulfometuron 15, trinexapac 250, untreated 1.2
[14] = 45 days after application, rate g ai/ha: haloxyfop-P-methyl 27, florpyrauxifen-benzyl 2.2, mixture 27 + 2.2, sulfometuron 15, trinexapac 250, untreated 4.2
[15] = 45 days after application, rate g ai/ha: haloxyfop-P-methyl 27, florpyrauxifen-benzyl 2.2, mixture 27 + 2.2, sulfometuron 15, trinexapac 250, untreated 7.7
[16] = 45 days after application, rate g ai/ha: haloxyfop-P-methyl 27, florpyrauxifen-benzyl 2.2, mixture 27 + 2.2, sulfometuron 15, trinexapac 250, untreated 38.4
[17] = single application 50 L/ha 60 days before harvest, 30 DAA, rate g ai/ha: florpyrauxifen-benzyl 2.2, sulfometuron 15, trinexapac 250, untreated 2.8
[18] = single application 50 L/ha 60 days before harvest, 30 DAA, rate g ai/ha: florpyrauxifen-benzyl 2.2, sulfometuron 15, trinexapac 250, untreated 7.2
[19] = single application 50 L/ha 60 days before harvest, 30 DAA, rate g ai/ha: florpyrauxifen-benzyl 2.2, sulfometuron 15, trinexapac 250, untreated 25.2
[20] = single application 50 L/ha 60 days before harvest, 45 DAA, rate g ai/ha: florpyrauxifen-benzyl 2.2, sulfometuron 15, trinexapac 250, untreated 4.2
[21] = single application 50 L/ha 60 days before harvest, 45 DAA, rate g ai/ha: florpyrauxifen-benzyl 2.2, sulfometuron 15, trinexapac 250, untreated 7.7
[22] = single application 50 L/ha 60 days before harvest, 45 DAA, rate g ai/ha: florpyrauxifen-benzyl 2.2, sulfometuron 15, trinexapac 250, untreated 38.4

COC(=O)[C@@H](C)Oc1ccc(Oc2ncc(C(F)(F)F)cc2Cl)cc1 [Haloxyfop-P-methyl, haloxyfop-P-methyl]
% Control (ratoon sugarcane; 124 g ai/ha, 14 DAA): 60.5%
% Control (ratoon sugarcane; 124 g ai/ha, 30 DAA): 86.5%
% Control (ratoon sugarcane; 124 g ai/ha, 45 DAA): 91.5%
% Control (ratoon sugarcane; 124 g ai/ha, 60 DAA): 89.8%
% Control (ratoon sugarcane; 248 g ai/ha, 14 DAA): 67.2%
% Control (ratoon sugarcane; 248 g ai/ha, 30 DAA): 88.7%
% Control (ratoon sugarcane; 248 g ai/ha, 45 DAA): 92.0%
% Control (ratoon sugarcane; 248 g ai/ha, 60 DAA): 90.8%
% Control (ratoon sugarcane; 373 g ai/ha, 14 DAA): 68.3%
% Control (ratoon sugarcane; 373 g ai/ha, 30 DAA): 91.0%
% Control (ratoon sugarcane; 373 g ai/ha, 45 DAA): 93.5%
% Control (ratoon sugarcane; 373 g ai/ha, 60 DAA): 92.2%
% Control (ratoon sugarcane; 620 g ai/ha, 14 DAA): 71.8%
% Control (ratoon sugarcane; 620 g ai/ha, 30 DAA): 94.7%
% Control (ratoon sugarcane; 620 g ai/ha, 45 DAA): 95.2%
% Control (ratoon sugarcane; 620 g ai/ha, 60 DAA): 94.8%
% Control (ratoon sugarcane; 1240 g ai/ha, 14 DAA): 74.5%
% Control (ratoon sugarcane; 1240 g ai/ha, 30 DAA): 95.2%
% Control (ratoon sugarcane; 1240 g ai/ha, 45 DAA): 96.3%
% Control (ratoon sugarcane; 1240 g ai/ha, 60 DAA): 95.5%
ratoon sugarcane control (ratoon sugarcane; rates from 373 to 1240 g ai/ha at 30 DAA): more than 90%
Gain Fiber (sugarcane [1]): 0.7%
Gain POL (sugarcane [1]): 2.9%
Gain Purity (sugarcane [1]): 6.6%
Gain TRS (sugarcane [1]): 24.7 kg/ton
Gain POL (sugarcane [2]; [3]): 3.3%
Gain Purity (sugarcane [2]; [3]): 13.0%
Gain TRS (sugarcane [2]; [3]): 27.8 kg/ton
Gain POL (sugarcane [2]; [4]): 6.7%
Gain Purity (sugarcane [2]; [4]): 18.3%
Gain TRS (sugarcane [2]; [4]): 49.6 kg/ton
Gain POL (sugarcane [2]; [5]): 2.8%
Gain Purity (sugarcane [2]; [5]): 8.1%
Gain TRS (sugarcane [2]; [5]): 23.7 kg/ton
Gain POL (sugarcane [2]; [6]): 4.4%
Gain Purity (sugarcane [2]; [6]): 10.3%
Gain TRS (sugarcane [2]; [6]): 39.9 kg/ton
Gain POL (sugarcane [2]; [7]): 3.2%
Gain Purity (sugarcane [2]; [7]): 7.2%
Gain TRS (sugarcane [2]; [7]): 28.6 kg/ton
Gain POL (sugarcane [2]; [8]): 4.0%
Gain Purity (sugarcane [2]; [8]): 8.8%
Gain TRS (sugarcane [2]; [8]): 36.7 kg/ton
Gain Fiber (sugarcane [2]; [9]): 0.4%
Gain POL (sugarcane [2]; [10]): 2.6%
Gain Purity (sugarcane [2]; [11]): 6.1%
Gain TRS (sugarcane [2]; [12]): 23.7 kg/ton
Gain Fiber (sugarcane [2]; [13]): 0.1%
Gain POL (sugarcane [2]; [14]): 4.4%
Gain Purity (sugarcane [2]; [15]): 10.3%
Gain TRS (sugarcane [2]; [16]): 39.9 kg/ton

CCOC(=O)C1CC(=O)C(=C(O)C2CC2)C(=O)C1 (stereo not drawn) [Trinexapac, trinexapac-ethyl]
Gain Fiber (sugarcane [1]): 0.4%
Gain POL (sugarcane [1]): 2.5%
Gain Purity (sugarcane [1]): 5.8%
Gain TRS (sugarcane [1]): 21.8 kg/ton
Gain Fiber (sugarcane [2]; [9]): 0.4%
Gain POL (sugarcane [2]; [10]): 2.9%
Gain Purity (sugarcane [2]; [11]): 6.8%
Gain TRS (sugarcane [2]; [12]): 25.8 kg/ton
Gain Fiber (sugarcane [2]; [13]): 0.8%
Gain POL (sugarcane [2]; [14]): 3.8%
Gain Purity (sugarcane [2]; [15]): 5.8%
Gain TRS (sugarcane [2]; [16]): 34.9 kg/ton
Gain POL (sugarcane [2]; [17]): 2.9%
Gain Purity (sugarcane [2]; [18]): 6.8%
Gain TRS (sugarcane [2]; [19]): 25.0 kg/ton
Gain POL (sugarcane [2]; [20]): 3.8%
Gain Purity (sugarcane [2]; [21]): 5.8%
Gain TRS (sugarcane [2]; [22]): 34.9 kg/ton

O=C(O)CNCP(=O)(O)O [Glyphosate, glyphosate]
% Control (ratoon sugarcane; 2160 g ai/ha, 14 DAA): 84.5%
% Control (ratoon sugarcane; 2160 g ai/ha, 30 DAA): 89.3%
% Control (ratoon sugarcane; 2160 g ai/ha, 45 DAA): 95.7%
% Control (ratoon sugarcane; 2160 g ai/ha, 60 DAA): 96.0%

COC(=O)c1ccccc1S(=O)(=O)NC(=O)Nc1nc(C)cc(C)n1 [Sulfometuron, sulfometuron-methyl]
Gain Fiber (sugarcane [1]): 0.1%
Gain POL (sugarcane [1]): 1.9%
Gain Purity (sugarcane [1]): 1.9%
Gain TRS (sugarcane [1]): 15.9 kg/ton
Gain Fiber (sugarcane [2]; [9]): 0.6%
Gain POL (sugarcane [2]; [10]): 2.4%
Gain Purity (sugarcane [2]; [11]): 6.5%
Gain TRS (sugarcane [2]; [12]): 21.3 kg/ton
Gain Fiber (sugarcane [2]; [13]): 0.6%
Gain POL (sugarcane [2]; [14]): 3.6%
Gain Purity (sugarcane [2]; [15]): 10.9%
Gain TRS (sugarcane [2]; [16]): 31.4 kg/ton
Gain POL (sugarcane [2]; [17]): 2.4%
Gain Purity (sugarcane [2]; [18]): 6.5%
Gain TRS (sugarcane [2]; [19]): 21.3 kg/ton
Gain POL (sugarcane [2]; [20]): 3.6%
Gain Purity (sugarcane [2]; [21]): 10.9%
Gain TRS (sugarcane [2]; [22]): 31.4 kg/ton

COc1c(Cl)ccc(-c2nc(C(=O)OCc3ccccc3)c(Cl)c(N)c2F)c1F [Florpyrauxifen-benzyl, florpyrauxifen-benzyl]
Gain Fiber (sugarcane [2]; [9]): 0.5%
Gain POL (sugarcane [2]; [10]): 2.6%
Gain Purity (sugarcane [2]; [11]): 7.5%
Gain TRS (sugarcane [2]; [12]): 23.0 kg/ton
Gain Fiber (sugarcane [2]; [13]): 1.5%
Gain POL (sugarcane [2]; [14]): 4.9%
Gain Purity (sugarcane [2]; [15]): 10.3%
Gain TRS (sugarcane [2]; [16]): 44.0 kg/ton
ripening performance (sugarcane [2]; at 30 DAA): comparable to the standards trinexapac and sulfometuron
ripening performance (sugarcane [2]; at 45 DAA): unexpectedly superior to the standards
Gain POL (sugarcane [2]; [17]): 2.6%
Gain Purity (sugarcane [2]; [18]): 7.5%
Gain TRS (sugarcane [2]; [19]): 23.0 kg/ton
Gain POL (sugarcane [2]; [20]): 4.9%
Gain Purity (sugarcane [2]; [21]): 10.3%
Gain TRS (sugarcane [2]; [22]): 44.0 kg/ton

COC(=O)c1nc(-c2ccc(Cl)c(OC)c2F)cc(N)c1Cl [Halauxifen-methyl, halauxifen-methyl]
Gain Fiber (sugarcane [1]): 0.5%
Gain POL (sugarcane [1]): 3%
Gain Purity (sugarcane [1]): 7.1%
Gain TRS (sugarcane [1]): 25.4 kg/ton
